Data reported in PubChem BioAssay (NCI).
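All cell lines were grown in 96-well plates and treated with compound for 48 hours. Abbreviation: GI50, concentration required for 50% inhibition of growth. At the TGI there is no net growth.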

Key:
Experiment in all cases: inhibition of tumour cell growth, NCI panel, 48 h
[1] = system: HT29 colon
[2] = system: RPMI-8226 leukemia
[3] = system: HL-60(TB) leukemia
[4] = system: UACC-62 melanoma
[5] = system: A498 renal
[6] = system: SW-620 colon
[7] = system: SF-295 CNS
[8] = system: K-562 leukemia
[9] = system: HCC-2998 colon
[10] = system: MCF7 breast
[11] = system: COLO 205 colon
[12] = system: SK-MEL-5 melanoma
[13] = system: SK-MEL-2 melanoma
[14] = system: MDA-MB-435
[15] = system: SNB-19 CNS
[16] = system: RXF 393 renal
[17] = system: UACC-257 melanoma
[18] = system: HOP-92 NSCLC
[19] = system: NCI-H522 lung
[20] = system: LOX IMVI melanoma
[21] = system: NCI-H226 lung
[22] = system: BT-549 breast
[23] = system: UO-31 renal
[24] = system: OVCAR-5 ovarian
[25] = system: SR leukemia
[26] = system: IGROV1 ovarian
[27] = system: CCRF-CEM leukemia
[28] = system: SK-MEL-28 melanoma
[29] = system: MOLT-4 leukemia
[30] = system: SF-268 CNS
[31] = system: NCI/ADR-RES ovarian
[32] = system: MALME-3M melanoma
[33] = system: MDA-MB-231 breast
[34] = system: NCI-H23 lung
[35] = system: SN12C renal
[36] = system: M14 melanoma
[37] = system: T-47D breast
[38] = system: KM12 colon
[39] = system: HOP-62 NSCLC
[40] = system: HCT-116 colon
[41] = system: TK-10 renal
[42] = system: A549 NSCLC
[43] = system: SNB-75 CNS
[44] = system: PC-3 prostate
[45] = system: U251 CNS
[46] = system: NCI-H460 lung
[47] = system: 786-0 renal
[48] = system: OVCAR-4 ovarian
[49] = system: OVCAR-8 ovarian
[50] = system: SK-OV-3 ovarian
[51] = system: CAKI-1 renal
[52] = system: ACHN renal
[53] = system: DU-145 prostate
[54] = system: SF-539 CNS
[55] = system: EKVX NSCLC
[56] = system: HCT-15 colon
[57] = system: HS 578T breast

Work on `CN1CCN(Cc2ccc(NC(=O)c3cncc(C#Cc4cnc5ccc(OCC(C)(C)O)nn45)c3)cc2C(F)(F)F)CC1` yielded a GI50 [1] of 0.203 µM, a TGI [1] of 0.91 µM and a GI50 [2] of 0.344 µM. The TGI [2] was 1.38 µM, the GI50 [3] was 0.264 µM and the TGI [3] was 0.873 µM. For the same compound, the GI50 [4] was 0.199 µM, the TGI [4] was 0.843 µM and the GI50 [5] was 0.199 µM. It also gave a TGI [5] of 0.395 µM, a GI50 [6] of 0.202 µM and a TGI [6] of 0.585 µM. For the same compound, the GI50 [7] was 0.726 µM, the TGI [7] was 2.06 µM and the TGI [8] was 1.85 µM. It also gave a GI50 [9] of 0.334 µM, a TGI [9] of 1.02 µM and a GI50 [10] of 0.146 µM. It also gave a TGI [10] of 0.897 µM, a GI50 [11] of 0.178 µM and a TGI [11] of 0.349 µM. For the same compound, the GI50 [12] was 0.775 µM, the TGI [12] was 2.05 µM and the GI50 [13] was 0.177 µM. It also gave a TGI [13] of 0.349 µM, a GI50 [14] of 0.207 µM and a TGI [14] of 0.698 µM. For the same compound, the GI50 [15] was 0.356 µM, the TGI [15] was 1.36 µM and the GI50 [16] was 0.181 µM. For the same compound, the TGI [16] was 0.392 µM, the GI50 [17] was 0.318 µM and the TGI [17] was 1.2 µM. It also gave a GI50 [18] of 0.0385 µM, a TGI [18] of 0.225 µM and a GI50 [19] of 0.179 µM. The TGI [19] was 0.37 µM, the GI50 [20] was 0.146 µM and the TGI [20] was 0.3 µM. For the same compound, the GI50 [21] was 0.148 µM, the TGI [21] was 1.34 µM and the GI50 [22] was 0.386 µM. The TGI [22] was 1.22 µM, the GI50 [23] was 0.339 µM and the TGI [23] was 1.06 µM. For the same compound, the GI50 [24] was 0.295 µM, the TGI [24] was 1.2 µM and the GI50 [25] was 0.249 µM. The TGI [25] was 0.852 µM, the GI50 [26] was 0.167 µM and the TGI [26] was 1.06 µM. It also gave a GI50 [27] of 0.336 µM, a TGI [27] of 12.5 µM and a GI50 [28] of 0.237 µM. It also gave a TGI [28] of 0.726 µM, a GI50 [29] of 0.269 µM and a TGI [29] of 1.41 µM. It also gave a GI50 [30] of 0.18 µM, a TGI [30] of 0.448 µM and a GI50 [31] of 1.64 µM. The TGI [31] was 4.68 µM, the GI50 [32] was 0.127 µM and the TGI [32] was 0.37 µM. The GI50 [33] was 0.114 µM, the TGI [33] was 0.548 µM and the GI50 [34] was 0.185 µM. It also gave a TGI [34] of 0.478 µM, a GI50 [35] of 0.153 µM and a TGI [35] of 0.864 µM. The GI50 [36] was 0.139 µM, the TGI [36] was 0.305 µM and the GI50 [37] was 0.369 µM. The TGI [37] was 1.91 µM, the TGI [38] was 0.83 µM and the GI50 [39] was 0.23 µM. The TGI [39] was 0.667 µM, the GI50 [40] was 0.17 µM and the TGI [40] was 0.889 µM. For the same compound, the GI50 [41] was 0.226 µM, the TGI [41] was 0.55 µM and the GI50 [42] was 0.317 µM. The TGI [42] was 1.09 µM, the GI50 [43] was 0.21 µM and the TGI [43] was 0.572 µM. The GI50 [44] was 0.332 µM, the TGI [44] was 1.75 µM and the GI50 [45] was 0.329 µM. It also gave a TGI [45] of 1.12 µM, a GI50 [46] of 0.297 µM and a TGI [46] of 0.851 µM. It also gave a GI50 [47] of 0.323 µM, a TGI [47] of 0.96 µM and a GI50 [48] of 0.217 µM. The TGI [48] was 1.04 µM, the GI50 [49] was 0.304 µM and the TGI [49] was 1.05 µM. It also gave a GI50 [50] of 0.378 µM, a TGI [50] of 1.16 µM and a GI50 [51] of 0.183 µM. For the same compound, the TGI [51] was 0.528 µM, the GI50 [52] was 0.295 µM and the TGI [52] was 1.06 µM. It also gave a GI50 [53] of 0.26 µM, a TGI [53] of 0.786 µM and a GI50 [54] of 0.117 µM. It also gave a TGI [54] of 0.403 µM, a GI50 [55] of 0.257 µM and a TGI [55] of 0.997 µM. The GI50 [56] was 0.287 µM, the TGI [56] was 0.929 µM and the GI50 [57] was 0.156 µM. The TGI [57] was 0.578 µM.
